Measured values: ChEMBL document CHEMBL1212694, “Discovery and characterization of a marine bacterial SAM-dependent chlorinase” (Nat Chem Biol, 2008)
Numbering of substitutions follows the chain as printed. Active and inactive are the calls of the source. The rule behind the calls is not given here.

What was measured:
[1] = system: Salinispora tropica CNB-440; assay: Activity at Salinispora tropica CNB-440 wild type recombinant SalL expressed in Escherichia coli BL21(DE3) after 30 mins by HPLC analysis
[2] = system: Salinispora tropica CNB-440; assay: Ratio of Kcat to Km for Salinispora tropica CNB-440 wild type recombinant SalL expressed in Escherichia coli BL21(DE3)
[3] = system: Salinispora tropica CNB-440; assay: Activity at Salinispora tropica CNB-440 wild type recombinant SalL expressed in Escherichia coli BL21(DE3) assessed as formation of S-Adenosyl methionine after 30 mins by HPLC analysis
[4] = system: Salinispora tropica CNB-440; assay: Effect on Salinispora tropica CNB-440 wild type recombinant SalL expressed in Escherichia coli BL21(DE3)-mediated S-Adenosyl methionine formation after 30 mins by HPLC analysis
[5] = system: Salinispora tropica CNB-440; assay: Ratio of Kcat to Km for Salinispora tropica CNB-440 wild type recombinant SalL expressed in Escherichia coli BL21(DE3) for formation of S-Adenosyl methionine
[6] = system: Salinispora tropica CNB-440; assay: Activity at Salinispora tropica CNB-440 wild type recombinant SalL expressed in Escherichia coli BL21(DE3) after 30 mins by HPLC analysis relative to S-Adenosyl methionine
[7] = system: T1, Adenosyl-chloride synthase (Salinispora tropica (strain ATCC BAA-916 / DSM 44818 / CNB-440)), A4X3Q0 [W129F]; assay: Activity at Salinispora tropica CNB-440 recombinant SalL W129F mutant expressed in Escherichia coli BL21(DE3) after 30 mins by HPLC analysis relative to S-Adenosyl methionine
T1 sequence (whole entry): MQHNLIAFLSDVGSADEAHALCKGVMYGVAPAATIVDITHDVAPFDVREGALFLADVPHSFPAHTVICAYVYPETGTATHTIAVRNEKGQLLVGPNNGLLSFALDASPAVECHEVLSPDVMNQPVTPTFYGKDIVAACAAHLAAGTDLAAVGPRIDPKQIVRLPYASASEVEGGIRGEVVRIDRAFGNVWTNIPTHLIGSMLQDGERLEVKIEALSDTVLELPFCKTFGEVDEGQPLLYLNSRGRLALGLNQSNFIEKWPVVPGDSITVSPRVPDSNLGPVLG

[8] = system: T2, Adenosyl-chloride synthase (Salinispora tropica (strain ATCC BAA-916 / DSM 44818 / CNB-440)), A4X3Q0 [Y70T]; assay: Activity at Salinispora tropica CNB-440 recombinant SalL Y70T mutant expressed in Escherichia coli BL21(DE3) after 30 mins by HPLC analysis relative to S-Adenosyl methionine
T2 sequence (whole entry): T1 sequence (whole entry) with Y70T, F129W

[9] = system: T3, Adenosyl-chloride synthase (Salinispora tropica (strain ATCC BAA-916 / DSM 44818 / CNB-440)), A4X3Q0 [Y70T,G131S]; assay: Activity at Salinispora tropica CNB-440 recombinant SalL Y70T/G131S mutant expressed in Escherichia coli BL21(DE3) after 30 mins by HPLC analysis relative to S-Adenosyl methionine
T3 sequence (whole entry): T1 sequence (whole entry) with Y70T, F129W, G131S

Structure (SMILES) | Km [1] | kcat [1] | kcat/Km [2] | Activity [3] | Km [4] | kcat [4] | kcat/Km [5] | Activity [6] | Activity [7] | Activity [8] | Activity [9]
C[S+](CC[C@H](N)C(=O)[O-])C[C@H]1O[C@@H](n2cnc3c(N)ncnc32)[C@H](O)[C@@H]1O (some centres not stated) | 1 µM | 0.015 s⁻¹ | 15000 M⁻¹ s⁻¹ |  |  |  |  |  |  |  | 
Nc1ncnc2c1ncn2[C@@H]1O[C@H](CBr)[C@@H](O)[C@H]1O |  |  |  | Active | Active | Active | Active |  |  |  | 
Nc1ncnc2c1ncn2[C@@H]1O[C@H](CCl)[C@@H](O)[C@H]1O |  |  |  | 1300% | 0.2 µM | 0.2 s⁻¹ | 1e+06 M⁻¹ s⁻¹ | 100% | 11% | 1.1% | 2.5%
Nc1ncnc2c1ncn2[C@@H]1O[C@H](CI)[C@@H](O)[C@H]1O |  |  |  | 5560% | 4.6 µM | 0.833 s⁻¹ | 181000 M⁻¹ s⁻¹ | 100% | 12% | 1.4% | 0.8%
CSCC[C@H](N)C(=O)O |  |  |  | 1300% | 2600 µM | 0.2 s⁻¹ | 76.7 M⁻¹ s⁻¹ |  |  |  | 
